According to patent US8338663B2 (priority 2001, dated 2012):

Key:
Phytophthora infestans [1] = type: cell-based; conditions: for inhibition of mycelium growth: 2% and 0.2% (v/v) in Plich medium, isolate VK98014, day 3, 5 and 7; for effect on mycelium growth at the lowest concentration: 0.002% (=20 ppm) in Plich medium, isolate VK98014, day 3 and 5; for effect on mycelium growth through the vapour phase: 0.2% added to the medium in the adjacent wells, isolate VK98014
[2] = target: T1, H64NORS linalool/nerolidol synthase, cultivated strawberry, recombinant his-tag purified, no targeting signal, SEQ ID NO: 19 (Fragaria x ananassa, UniProt P0CV94); test: Kinetic characterisation of the his-tag purified H64NORS-encoded protein; type: biochemical, cultivated strawberry (Fragaria×ananassa Duch. cv. Elsanta); conditions: read-out: Km for GPP
T1 sequence (P0CV94 1-519): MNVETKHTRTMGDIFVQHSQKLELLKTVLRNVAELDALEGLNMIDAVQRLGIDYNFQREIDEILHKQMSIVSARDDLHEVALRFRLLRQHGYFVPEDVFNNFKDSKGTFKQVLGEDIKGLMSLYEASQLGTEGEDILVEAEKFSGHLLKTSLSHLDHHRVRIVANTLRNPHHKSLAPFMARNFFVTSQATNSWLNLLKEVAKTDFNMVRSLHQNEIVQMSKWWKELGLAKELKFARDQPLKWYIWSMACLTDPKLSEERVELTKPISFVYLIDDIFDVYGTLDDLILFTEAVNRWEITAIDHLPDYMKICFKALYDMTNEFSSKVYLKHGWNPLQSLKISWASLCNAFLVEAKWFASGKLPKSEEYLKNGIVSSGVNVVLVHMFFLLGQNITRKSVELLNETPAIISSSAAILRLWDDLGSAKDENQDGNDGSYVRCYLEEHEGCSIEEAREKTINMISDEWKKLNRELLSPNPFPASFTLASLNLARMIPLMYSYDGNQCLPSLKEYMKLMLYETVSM
Description: The pRSETB vector harboring the H64MUT or H64NORS was used to transform E. coli strain BL21 Gold DE3 pLysE (Stratagene) as described by the manufacturer. For bacterial expression typically 1 ml of overnight liquid culture grown at 37° C. in Luria Broth (LB) medium (10 g/l tryptone, 5 g/l yeast extract, 5 g/l NaCl) supplemented with 100 mg/l ampicillin was diluted 50 times in the same medium and grown until the OD600 reached 0.4 (at 37° C.). At this stage IPTG was added to a final concentration of 1 mM in order to induce expression. After overnight growth at 16° C. the cells were harvested by centrifugation at 4000×g for 15 min. […] The cells were further processed as described by the Ni-NTA Spin Columns manufacturers (QIAGEN) for protein purification under native conditions. First elute from the column (200 μl) was further used for enzymatic activity assays.
For determination of terpene synthase identity, the His-tag purified enzymes (prepared as described above under Example 4.6) were diluted 10-fold with buffer A containing 15 mM MOPSO (pH 7.0), 10% glycerol, 10 mM MgCl2, 1 mM sodium ascorbate and 2 mM DTT. […]
The samples were also analysed by GC-MS using a HP 5890 series II gas chromatograph equipped with an HP5-MS column (30 m×0.25 mm i.d., 0.25 μm df) and HP 5972A Mass Selective Detector (Hewlett-Packard). […]

[3] = test system: Fusarium verticillioides spores; test: Spectrophotometric assay of Fusarium spore germination; type: cell-based; conditions: 10^5 spores/ml in Czapek Dox medium, day 3
Description: A spectrophotometric assay was used to monitor the onset of germination of Fusarium verticillioides spores (isolates: ITEM2282, MRC3235, MRC826, MRC826-2) in solution. The spores were diluted to a concentration of 10^5 spores/ml in Czapek Dox medium and mixed with 8-4000 ppm of linalool or nerolidol.

[4] = test system: Phytophthora infestans (isolate VK98014); type: cell-based; conditions: linalool versus farnesol
[5] = test system: Phytophthora infestans (isolate VK98014); type: cell-based
[6] = test system: Fusarium graminearum, Fusarium culmorum, F. verticillioides strain MRC826; type: cell-based, Fusarium spp.
[7] = test system: Botrytis cinerea isolated from grape and strawberry; test: Effects of linalool and nerolidol on Botrytis mycelial growth; type: cell-based; conditions: day 7
Description: Botrytis. Nerolidol and linalool were tested in a range of concentrations (10-5000 ppm) alone and in combination through the addition to Plich medium in 6 well plates (3 ml per well). In the case of comparing the application of nerolidol and linalool alone to the combination of the two compounds, 100 ppm of the single compound was for example compared to 50+50 ppm of the two compounds together. One 6 well plate per compound was used with two different concentrations in triplicate. All wells were inoculated with a mycelium plug of Botrytis cinerea isolated from grape and strawberry and incubated at 20° C. Each day the radial growth of the mycelium was measured. The mycelium growth of all Botrytis isolates was inhibited at concentrations above 10 ppm.

Phytophthora infestans [8] = type: in vivo; conditions: cultivar Bintje, 0.05% (v/v) solution vacuum-infiltrated (ca. 0.0125% in leaves), 4 isolates, after 7 days
[9] = test system: Agrobacterium tumefaciens; test: Transformation of Agrobacterium with H64NORS binary vector (nerolidol formed from endogenous FPP); type: cell-based; conditions: inferred: no colonies obtained after transformation of 2 strains with H64NORS
[10] = substrate: CC(C)=CCC/C(C)=C/CC/C(C)=C/CO[P@@](=O)(O)OP(=O)(O)O; test: purified protein, by the assay type; conditions: pH 7.0

CC(C)=CCCC(C)=CCCC(C)=CCO [Farnesol, reference compound]
inhibition of mycelium growth (Phytophthora infestans [1]): partial inhibition

CC(C)=CCC/C(C)=C/COP(=O)(O)OP(=O)(O)O [GPP, geranyl diphosphate]
Km [2]: > 50 µM

C=CC(C)(O)CCC=C(C)C (stereo not shown) [linalool]
effect on mycelium growth at the lowest concentration (Phytophthora infestans [1]): active
effect on mycelium growth through the vapour phase (Phytophthora infestans [1]): equally effective through the vapour phase as through the medium
inhibition of mycelium growth (Phytophthora infestans [1]): inhibited completely
effect on germination of spores ([3]; 8-4000 ppm): did not affect the germination of the spores at all
Relative activity, inhibition of mycelium growth [4]: more active than farnesol
Inhibition of mycelium growth at the lowest concentration ([5]; 0.002% (=20 ppm) in Plich medium, day 3 and 5): active even at the lowest concentration
Relative effectiveness at very high concentrations ([6]; nerolidol versus linalool, day 7): more effective
Relative effectiveness at very high concentrations ([7]; linalool or the combination): most effective

C=CC(C)(O)CCC=C(C)CCC=C(C)C (stereo not shown) [nerolidol]
effect on mycelium growth at the lowest concentration (Phytophthora infestans [1]): strong inhibitor of mycelium growth
effect on mycelium growth through the vapour phase (Phytophthora infestans [1]): negligible
effect on mycelium growth, lesion formation and sporulation in infiltrated potato leaves (Phytophthora infestans [8]): strongly inhibits mycelium growth, lesion formation and sporulation
concentrations showing strong inhibition of germination ([3]; 8-4000 ppm tested): above 250 ppm
toxicity to Agrobacterium cells [9]: highly toxic
Relative effectiveness, inhibition of mycelium growth ([5]; nerolidol versus linalool): slightly more effective than linalool
Relative effectiveness at low concentrations ([6]; F. graminearum and MRC826, day 7): slightly more effective than linalool
Relative effectiveness at low concentrations ([7]; nerolidol versus linalool): more effective than linalool

B1: H64NORS linalool/nerolidol synthase, cultivated strawberry, recombinant his-tag purified, no targeting signal, SEQ ID NO: 19 (Fragaria x ananassa) (protein)
chain: MNVETKHTRTMGDIFVQHSQKLELLKTVLRNVAELDALEGLNMIDAVQRLGIDYNFQREIDEILHKQMSIVSARDDLHEVALRFRLLRQHGYFVPEDVFNNFKDSKGTFKQVLGEDIKGLMSLYEASQLGTEGEDILVEAEKFSGHLLKTSLSHLDHHRVRIVANTLRNPHHKSLAPFMARNFFVTSQATNSWLNLLKEVAKTDFNMVRSLHQNEIVQMSKWWKELGLAKELKFARDQPLKWYIWSMACLTDPKLSEERVELTKPISFVYLIDDIFDVYGTLDDLILFTEAVNRWEITAIDHLPDYMKICFKALYDMTNEFSSKVYLKHGWNPLQSLKISWASLCNAFLVEAKWFASGKLPKSEEYLKNGIVSSGVNVVLVHMFFLLGQNITRKSVELLNETPAIISSSAAILRLWDDLGSAKDENQDGNDGSYVRCYLEEHEGCSIEEAREKTINMISDEWKKLNRELLSPNPFPASFTLASLNLARMIPLMYSYDGNQCLPSLKEYMKLMLYETVSM
Km [10]: 3.2 µM
